The values below come from patent publication US20070219208A1, “Methods for Treating Cancer” (priority 2006, published 2007).

Entries after “also recorded” stand apart in the source; their conditions may differ.

The test system of series [1] is NO2-/NO3- levels in MCF-7 cells. As to the kind of experiment: Nitrite and nitrate measurements by chemiluminescence (NO analyzer). The conditions noted are these: with simvastatin or fluvastatin (10 μM), 40 h; mevalonate 20 μM, 1400 W 10 μM, sepiapterin 50 μM; compared to statin alone. Type of series: cell-based. The protocol:
Briefly, following treatments, cells were washed three times with DPBS after aspirating the medium. To this, 1 ml of Hanks' balanced salt mixture containing 25 μM L-arginine was added and incubated for 30 min at 37° C. The medium was collected and centrifuged for 5 min at 5000 rpm, and 50 μl of the clear supernatant was used for nitrate and nitrite analysis. Each sample was analyzed in triplicate.

For series [2], the system named is MCF-7 cells. As to the kind of experiment: 3H-thymidine uptake (DNA synthesis / cell proliferation). The conditions noted are these: mevalonate 20 μM with simvastatin or fluvastatin. The format is cell-based. As for the experimental part: Thymidine Uptake Studies:
DNA synthesis was measured by monitoring the uptake of tritiated thymidine, [^3H]TdR (Perkin-Elmer, Boston, Mass.). Cells (5×10^5/ml) were cultured with different concentrations of simvastatin or fluvastatin (0-10 μM) in the presence or absence of mevalonate (20 μM), 1400 W, or sepiapterin. Cells were pulse-chased with [^3H]TdR [0.5 μCi (0.185 MBq)/well during the last 3 h of a 24 h culture, harvested onto glass filters with an automatic cell harvester (Cambridge Technology, Cambridge, Mass.), and counted using the LKB Betaplate scintillation counter (Wallac, Gaithersburg, Md.). All experiments were performed in triplicate and repeated three times.

The test system of series [3] is MCF-7 breast cancer cells. Briefly: MTT reduction cytotoxicity assay in MCF-7 cells. The settings on record: pretreatment before simvastatin or fluvastatin (10 μM), 48 h; mevalonate 20 μM, 1400 W 10 μM. The protocol: MTT Reduction Cytotoxicity Assay:
MTT is taken up by cells and is reduced to a colored formazon product that can be detected by spectrophotometry (max=562 nm). Reduction of MTT is dependent upon the mitochondrial respiratory function, and thus measures the relative number of viable cells in the culture. After the treatment was completed, MCF-7 cells were washed twice with DPBS and taken in a ml of MEM without FBS and incubated with 5 mg/ml MTT solution for 1 h at 37° C. Medium was removed and cells were solubilized in DMSO. The absorption was measured at 562 nm with reference at 630 nm.
We assessed the effectiveness of simvastatin and fluvastatin to induce cytotoxicity in MCF-7 cells. MCF-7 breast cancer cells were treated with fluvastatin or simvastatin at different concentrations (0.5-20 μM) for 24-48 h. The changes in the number of viable cells were determined using the MTT assay that monitors the intracellular conversion of MTT to formazon spectrophotometrically max=562 nm).
(Formazan colour is commonly taken as a measure of viable cells.)

In series [4] the test system is arginase II in MCF-7 cells. Briefly: Arginase II transcript levels by RT-PCR. The format is cell-based. The conditions noted are these: mevalonate 20 μM. As for the experimental part: Following the treatments, medium was aspirated and 1 ml of TRIzol reagent (Invitrogen) was added and total RNA was extracted using the manufacturer's protocol. Five μg of RNA was used for the first strand cDNA synthesis using a first strand cDNA synthesis kit (Amersham Biosciences). Four μl of the cDNA mixture was used to amplify mRNA's of iNOS [(5′-[…]-3′, SEQ ID NO:1) and (5′-[…]-3′, SEQ ID NO:2)], arginase I [(5′-[…]-3′, SEQ ID NO:3) and (5′-[…]-3′, SEQ ID NO:4)], arginase II [(5′-[…]-3′, SEQ ID NO:5) and (5′-[…]-3′, SEQ ID NO:6)], and eNOS [(5′-[…]-3′, SEQ ID NO:7) and (5′-[…]-3′, SEQ ID NO:8)].

Series [5] deals with MCF-7 cells. Briefly: Cell cycle analysis by flow cytometry. Type of series: cell-based. The conditions noted are these: 1400 W 10 μM, mevalonate 20 μM. As for the experimental part:
For DNA content analysis, harvested cells were centrifuged at 1,000×g for 5 min, fixed by the gradual addition of ice-cold 70% ethanol, and washed with PBS. Cells were then treated with RNase (10 μg/mL) for 30 min at 37° C., washed once with PBS, and resuspended and stained in 1 mL of 69 μmol/L propidium iodide in 38 mmol/L sodium citrate for 30 min at room temperature. The cell cycle phase distribution was determined by analytic DNA flow cytometry as described in (Vindelov L, et al. Methods Cell Biol, 33:127-37, 1990). The percentage of cells in each phase of the cell cycle was analyzed using a Modfit software (Verity Software House, Topsham, Me.).
As NO has previously been reported to exert tumor cell cycle alterations (Pervin S, et al. Natl Acad Sci USA 98:3583-3588, 2001), we investigated the cytostatic effect of statins in MCF-7 cells. MCF-7 cells were treated with simvastatin and fluvastatin for […] in the presence and absence of 1400 W (10 μM) and mevalonate (20 μM). Cell cycle progression was examined using FACScan flow cytometry analysis. […] As cell cycle progression from […] involves activations of the cell regulatory proteins, cyclins D and E, we investigated the effects of statins and iNOS inhibitor on the cell cycle proteins. […]

In the case of `CC(O)(CCO)CC(=O)O` (centres unmarked) [mevalonate], the “effect on statin-induced NO / NO2-/NO3- levels” value in series [1] is “inhibited; also recorded: suppressed”. Moreover, the “effect on statin inhibition of 3H-thymidine uptake” value in the series with MCF-7 cells [2] is listed as “partially reversed”. Besides, the “effect on statin-induced MCF-7 cell cytotoxicity (MTT assay)” value in series [3] is listed as “significantly reversed”. Besides, in series [4], the “effect on statin-induced down-regulation of Arg II level” value is listed as “reversed”. The “effect on statin-induced cell cycle alterations” value in the series on MCF-7 cells [5] was “almost completely reversed”.
